From publication PMC7845594, “Novel Immune Modulators Enhance Caenorhabditis elegans Resistance to Multiple Pathogens” (mSphere, 2021)

System: C. elegans transcriptome
Test: Transcriptome profiling (Affymetrix microarrays), differentially expressed genes
Format: in vivo, Caenorhabditis elegans
Experimental: To gain additional insight into the effect of LK molecules on C. elegans, young-adult, wild-type worms were treated with each drug at 100 µM for 8 h in the absence of pathogen. RNA was collected, and transcriptome profiling was performed.
Data were determined using Affymetrix microarrays, as described in Materials and Methods. Download Table S3, XLSX file, 0.07 MB.
Transcriptome profiling was performed on ∼6,000 wild-type, young adult worms incubated with either LK molecules or DMSO for 8 h. RNA isolation was performed using TRIzol extraction, followed by cleanup using RNeasy columns according to the manufacturer’s protocol. Each condition was analyzed in triplicate. Microarray data have been deposited in the GEO database, accession number GSE137516. […] Clustering and generation of the heat map was performed using Cluster 3.0 ([98]) and Treeview ([99]), respectively. Fold change of genes were normalized to average fold change of that gene over all clustered conditions. Genes and conditions were clustered using Euclidean distance and average linkages. […] Microarray data for non-LK molecules were collected from GEO omnibus. WormEXP was used as a secondary method for confirming statistical significance of potential pathways stimulated by each of the LK molecules ([100]). Gene ontologies were generated using DAVID ([101], [102]).

[1] = Downregulated genes, Affy_ID 171867_x_at

CN(C)/N=N/c1ccc(-c2cn(Cc3ccccc3)cn2)cc1 [LK38]
Fold Change (Affy_ID 171867_x_at, listed under genes C09B9.6, F36H12.7, K07F5.1, R05F9.13, R13H9.2, R13H9.4, T13F2.10, T13F2.11, Y59E9AR.1, Y59E9AR.7, ZK354.1, downregulated genes): 0.2521
Fold Change (Affy_ID 176276_s_at, listed under gene Y69A2AR.25 (LK34) or Y69A2AR.12 (LK38), downregulated genes): 0.3902
Fold Change, gene ZK525.1 (Downregulated genes, Affy_ID 171849_x_at): 0.4368
Fold Change, gene ZK354.10 [1]: 0.2521
Fold Change, gene ZK354.11 [1]: 0.2521
Fold Change, gene ZK354.4 [1]: 0.2521
Fold Change, gene ZK354.5 [1]: 0.2521
Fold Change, gene ZK525.1 (Downregulated genes, Affy_ID 172214_x_at): 0.3013
Fold Change, gene ZK484.8 (Downregulated genes, Affy_ID 172381_x_at): 0.4248
Fold Change, gene ZK546.3 (Downregulated genes, Affy_ID 172798_x_at): 0.1961
Fold Change, gene ZK546.6 (Downregulated genes, Affy_ID 172900_x_at): 0.1945
Fold Change, gene ZK354.4 (Downregulated genes, Affy_ID 172922_x_at): 0.2136
Fold Change, gene ZK354.11 (Downregulated genes, Affy_ID 172925_x_at): 0.2447
Fold Change, gene ZK354.5 (Downregulated genes, Affy_ID 172928_x_at): 0.2421
Fold Change, gene ZK550.2 (Downregulated genes, Affy_ID 179513_at): 0.2459
Fold Change, gene ZK484.5 (Downregulated genes, Affy_ID 182193_at): 0.3776
Fold Change, gene ZK666.7 (Downregulated genes, Affy_ID 194066_s_at): 0.2101
Fold Change (Gene C05C12.3, Affy_ID 183355_s_at, downregulated genes): 0.3153
Fold Change (Gene C08E3.1, Affy_ID 172309_x_at, downregulated genes): 0.1357
Fold Change (Gene C08E3.13, Affy_ID 172565_x_at, downregulated genes): 0.1172
Fold Change (Gene C08F11.13, Affy_ID 175229_at, downregulated genes): 0.2733
Fold Change (Gene C08F11.13, Affy_ID 185001_at, downregulated genes): 0.09464
Fold Change (Gene C09B9.6, Affy_ID 172903_x_at, downregulated genes): 0.2435
Fold Change (Gene C14C6.2, Affy_ID 183566_at, downregulated genes): 0.3131
Fold Change (Gene R01E6.3, Affy_ID 189628_at, downregulated genes): 0.3184
Fold Change (Gene R03E9.1, Affy_ID 193723_s_at, downregulated genes): 0.2835
Fold Change (Gene R04B5.9, Affy_ID 191440_at, downregulated genes): 0.3161
Fold Change (Gene R05F9.13, Affy_ID 172714_x_at, downregulated genes): 0.2707
Fold Change (Gene R05F9.3, Affy_ID 172725_x_at, downregulated genes): 0.4569
Fold Change (Gene R05F9.8, Affy_ID 172724_x_at, downregulated genes): 0.2625
Fold Change (Gene R12C12.1, Affy_ID 190616_at, downregulated genes): 0.3782
Fold Change (Gene R13H9.2, Affy_ID 172771_x_at, downregulated genes): 0.2091
Fold Change (Gene R13H9.4, Affy_ID 172770_x_at, downregulated genes): 0.2077
Fold Change (Gene T01C3.4, Affy_ID 188106_at, downregulated genes): 0.02377
Fold Change (Gene T02B11.3, Affy_ID 174051_s_at, downregulated genes): 0.3852
Fold Change (Gene T07C4.4, Affy_ID 178149_s_at, downregulated genes): 0.3385
Fold Change (Gene T07G12.5, Affy_ID 188496_s_at, downregulated genes): 0.1128
Fold Change (Gene T08B1.6, Affy_ID 192296_at, downregulated genes): 0.264
Fold Change (Gene T08B2.12, Affy_ID 184685_s_at, downregulated genes): 0.1122
Fold Change (Gene T09F5.9, Affy_ID 188947_at, downregulated genes): 0.335
Fold Change (Gene T13F2.10, Affy_ID 172906_x_at, downregulated genes): 0.282
Fold Change (Gene T13F2.11, Affy_ID 172905_x_at, downregulated genes): 0.2555
Fold Change (Gene T14B4.4, Affy_ID 190598_at, downregulated genes): 0.3119
Fold Change (Gene T15B7.9, Affy_ID 182858_at, downregulated genes): 0.3485
Fold Change (Gene T20D4.11, Affy_ID 184438_at, downregulated genes): 0.08285
Fold Change (Gene T22H2.6, Affy_ID 180962_s_at, downregulated genes): 0.4528
Fold Change (Gene T23B7.1, Affy_ID 172486_x_at, downregulated genes): 0.4388
Fold Change (Gene T23B12.8, Affy_ID 184855_at, downregulated genes): 0.1808
Fold Change (Gene T23F4.1, Affy_ID 180223_s_at, downregulated genes): 0.03953
Fold Change (Gene T23F4.3, Affy_ID 179815_at, downregulated genes): 0.03894
Fold Change (Gene T27A10.7, Affy_ID 186153_s_at, downregulated genes): 0.1891
Fold Change (Gene T27E4.7, Affy_ID 173756_at, downregulated genes): 0.3486
Fold Change (Gene T27E4.7, Affy_ID 173757_s_at, downregulated genes): 0.3375
Fold Change (Gene T28H11.6, Affy_ID 172704_x_at, downregulated genes): 0.3336
Fold Change (Gene W04B5.2, Affy_ID 180561_at, downregulated genes): 0.445
Fold Change (Gene W07B8.5, Affy_ID 191887_s_at, downregulated genes): 0.336
Fold Change (Gene Y40D12A.2, Affy_ID 191017_at, downregulated genes): 0.3923
Fold Change (Gene Y43F8B.2, Affy_ID 172568_x_at, downregulated genes): 0.4361
Fold Change (Gene Y44A6C.1, Affy_ID 182843_at, downregulated genes): 0.4118
Fold Change (Gene Y45F10A.5, Affy_ID 184558_at, downregulated genes): 0.1874
Fold Change (Gene Y46G5A.11, Affy_ID 184716_at, downregulated genes): 0.4392
Fold Change (Gene Y48A6B.7, Affy_ID 193926_at, downregulated genes): 0.1656
Fold Change (Gene Y48A6B.7, Affy_ID 193927_s_at, downregulated genes): 0.1715
Fold Change (Gene Y51A2D.13, Affy_ID 192992_at, downregulated genes): 0.2626
Fold Change (Gene Y51H4A.7, Affy_ID 180145_s_at, downregulated genes): 0.364
Fold Change (Gene Y59E9AR.7, Affy_ID 172629_x_at, downregulated genes): 0.2101
Fold Change (Gene Y59H11AM.1, Affy_ID 172113_x_at, downregulated genes): 0.292
Fold Change (Gene Y71H2AL.1, Affy_ID 177190_at, downregulated genes): 0.3481
Fold Change (Gene Y105C5A.13, Affy_ID 172627_x_at, downregulated genes): 0.08697
Fold Change (Gene Y105C5A.24, Affy_ID 187121_at, downregulated genes): 0.3583
Fold Change (Gene Y119D3B.13, Affy_ID 175112_s_at, downregulated genes): 0.1938
Fold Change (Gene Y119D3B.13, Affy_ID 176131_at, downregulated genes): 0.2809
Fold Change (Gene ZC416.6, Affy_ID 188470_s_at, downregulated genes): 0.4112
Fold Change (Gene ZK112.1, Affy_ID 175995_at, downregulated genes): 0.3894
Fold Change (Gene ZK131.4, Affy_ID 190307_s_at, downregulated genes): 0.355
Fold Change (Gene ZK131.7, Affy_ID 172871_x_at, downregulated genes): 0.3915
Fold Change (Gene ZK354.1, Affy_ID 172927_x_at, downregulated genes): 0.2349
Fold Change (Gene ZK1248.4, Affy_ID 172734_x_at, downregulated genes): 0.2783
Fold Change (Gene ZK1248.6, Affy_ID 172887_x_at, downregulated genes): 0.1775
Fold Change (Gene ZK1251.6, Affy_ID 172938_x_at, downregulated genes): 0.2909
Fold Change (upregulated gene Y19D10A.9, Affy_ID 180592_s_at): 3.58
Fold Change (upregulated gene Y22F5A.4, Affy_ID 182989_at): 2.438
Fold Change (upregulated gene Y22F5A.5, Affy_ID 183028_s_at): 6.765
Fold Change (upregulated gene Y37D8A.6, Affy_ID 181665_at): 2.8924
Fold Change (upregulated gene Y37E3.16, Affy_ID 173045_at): 4.522
Fold Change (upregulated gene Y38E10A.14, Affy_ID 175449_s_at): 26.3223
Fold Change (upregulated gene Y39G10AR.10, Affy_ID 176486_at): 4.567
Fold Change (upregulated gene Y40B10A.6, Affy_ID 176851_at): 66.4819
Fold Change (upregulated gene Y41C4A.16, Affy_ID 194230_x_at): 2.891
Fold Change (upregulated gene Y41D4B.10, Affy_ID 176055_at): 10.2277
Fold Change (upregulated gene Y41D4B.16, Affy_ID 176044_at): 4.224
Fold Change (upregulated gene Y45F10C.4, Affy_ID 186062_at): 3.88
Fold Change (upregulated gene Y45G12C.2, Affy_ID 187084_at): 31.3356
Fold Change (upregulated gene Y46C8AL.2, Affy_ID 172184_x_at): 22.6612
Fold Change (upregulated gene Y46G5A.4, Affy_ID 187467_s_at): 2.088
Fold Change (upregulated gene Y47D3B.10, Affy_ID 175803_at): 15.9397
Fold Change (upregulated gene Y47D7A.1, Affy_ID 176618_at): 2.89
Fold Change (upregulated gene Y47H9C.5, Affy_ID 191065_s_at): 3.429
Fold Change (upregulated gene Y51H7C.1, Affy_ID 186349_at): 10.9287
Fold Change (upregulated gene Y53G8B.2, Affy_ID 184714_s_at): 6.111
Fold Change (upregulated gene Y54G2A.6, Affy_ID 173144_at): 2.211
Fold Change (upregulated gene Y55B1AR.1, Affy_ID 187047_at): 6.195
Fold Change (upregulated gene Y57A10A.23, Affy_ID 187073_at): 4.734
Fold Change (upregulated gene Y66D12A.24, Affy_ID 175124_at): 2.206
Fold Change (upregulated gene Y77E11A.2, Affy_ID 187013_at): 2.874
Fold Change (upregulated gene Y105C5B.15, Affy_ID 186799_at): 3.08
Fold Change (upregulated gene Y105C5B.9, Affy_ID 185162_at): 4.4277
Fold Change (upregulated gene Y106G6D.6, Affy_ID 185498_at): 6.567
Fold Change (upregulated gene ZC155.1, Affy_ID 173222_s_at): 2.443
Fold Change (upregulated gene ZK455.1, Affy_ID 193891_at): 2.648
Fold Change (upregulated gene ZK455.7, Affy_ID 193924_at): 3.307
Fold Change (upregulated gene ZK512.7, Affy_ID 186714_s_at): 3.427
Fold Change (upregulated gene ZK637.13, Affy_ID 173475_s_at): 2.9018
Fold Change (upregulated gene ZK770.3, Affy_ID 180366_s_at): 3.303
Fold Change (upregulated gene ZK899.2, Affy_ID 178376_s_at): 3.754
